The test system of data set [1] is intraocular tissue (retinal tissue incl. photoreceptor cell layer, vitreous body) of Zebrafish 7-day-old embryo. The data set can be described thus: Staining of intraocular tissue of Zebrafish fry by exposure to staining liquid, ocular tissue section observed by confocal microscope. Conditions: Zebrafish 7 dpf fry, 1 μg/mL, 1 hour exposure, fixed ocular section. The format is in vivo.

The nature of data set [2]: Excitation and fluorescence wavelengths by fluorescence spectrometer FL4500. Conditions: in nm (unit assumed). The format is physicochemical.
In data set [3] the test system is fundus (retina) of Zebrafish fry. The data set can be described thus: In vivo intraocular observation of the fundus of living Zebrafish fry by confocal microscope.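 Further: +++ photoreceptor and inner retinal layers stained ++ mainly photoreceptor layer − none seen.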 Conditions: 1 μg/mL, 1 hour exposure. As to the method:
In an arbitrary well of a 24-well multiplate, were put 1 mL of Staining Liquid 2 and a fry of Zebrafish, and the plate was left to stand for 1 hour. A process of removing Staining Liquid 2 in the well and replacing it by 1 mL of distilled water was then performed 3 times.
The fry was then put in a 0.7% agarose solution and placed on a slide glass to observe the fundus of the fry through a confocal microscope.

[4] abbreviates: aqueous solution: 10 mg/mL DMSO solution diluted to 1/500 with purified water (Examples 1 to 94).
[5] abbreviates: values in a chloroform solution (Examples 95 to 106).
Where [6] appears, read: Comparative Examples, solvent not stated.

The source of these data is patent publication US9764046B2, “Labeling composition for intraocular tissue, labeling method of intraocular tissue, and screening method” (CANON KABUSHIKI KAISHA, priority 2008, dated 2017).

For the compound `CCN(CC)c1ccc2cc3c(oc2c1)c(C#N)c(=O)n1c2ccccc2nc31` [Compound 6], the Staining ability result in data set [1] is recorded as “++”. For the same compound, in data set [2] (setting [4]), the “λem (fluorescence wavelength)” value amounted to 576 and the “λex (excitation wavelength)” value turned out to be 555. Besides, in data set [3], the “Result of observation (staining ability, in vivo fundus)” value (“Result of observation” for short) is recorded as “++”.
For `CCN(CC)c1ccc2cc(-c3nc4ccccc4s3)c(=O)oc2c1` [Compound 7], in data set [1], the Staining ability entry is on record as “++”. In addition, in data set [2] (setting [4]), the “λem (fluorescence wavelength)” value came to 555 and the “λex (excitation wavelength)” value came out at 469. Further, the “Result of observation” value in data set [3] is reported as “+++”.
The corresponding values for `CC1(C)CCN2CCC(C)(C)c3c2c1cc1cc(-c2nc4ccccc4s2)c(=O)oc31` [Compound 8] are “++”, 592, 477 and “+++”.
The corresponding values for `CCN(CC)c1ccc2cc(-c3nc4ccccc4[nH]3)c(=O)oc2c1` [Compound 9] are “++”, 514, 464 and “++”.
The corresponding values for `CCN(CC)c1ccc2cc(-c3nc4cc(Cl)ccc4o3)c(=O)oc2c1` [Compound 11] are “+++”, 476, 422 and “+++”.
Consider `CCCN(CCC)c1ccc2cc(-c3nc4ccccc4[nH]3)c(=O)oc2c1` [Compound 12], for which, in data set [1], the Staining ability entry is listed as “++”. In data set [2] (setting [4]), the “λem (fluorescence wavelength)” value is 509 and the “λex (excitation wavelength)” value is recorded as 463. The “Result of observation” value in data set [3] is on record as “++”.
As for `CCN(CC)c1ccc2cc(-c3nc4ccc(C)cc4o3)c(=O)oc2c1` [Compound 13], in data set [1], the Staining ability entry was “+++”. In data set [2] (setting [4]), the “λem (fluorescence wavelength)” value stood at 504 and the “λex (excitation wavelength)” value was determined as 472. Besides, in data set [3], the “Result of observation” value is “+++”.
With `COc1ccc2cc(N3c4ccc(/C=C5\SC(=S)N(CC(=O)O)C5=O)cc4[C@@H]4CCC[C@@H]43)ccc2c1` [Compound 36], in data set [1], the Staining ability result was “+++”. Also, in data set [2] (setting [4]), the “λem (fluorescence wavelength)” value is on record as 661 and the “λex (excitation wavelength)” value was determined as 566. In data set [3], the “Result of observation” value is “++”.
For `O=C(O)CCN1C(=O)/C(=C\c2ccc3c(c2)C2CCCC2N3c2ccccc2)SC1=S` (stereo not drawn) [Compound 48], the Staining ability result in data set [1] was “++”. Also, in data set [2] (setting [4]), the “λem (fluorescence wavelength)” value was 619 and the “λex (excitation wavelength)” value came to 541. Besides, the “Result of observation” value in data set [3] was “++”.
Regarding `CSc1ccc(N2c3ccc(/C=C4/SC(=S)N(CC(=O)O)C4=O)cc3C3CCCC32)cc1` (stereo not drawn) [Compound 66], the Staining ability entry in data set [1] was “+++”. Besides, in data set [2] (setting [4]), the “λem (fluorescence wavelength)” value worked out at 636 and the “λex (excitation wavelength)” value is recorded as 527. Besides, the “Result of observation” value in data set [3] was “++”.
For the compound `C[n+]1c(C=c2sc(=Cc3ccc4c(c3)C3CCCC3N4c3ccc(C=C(c4ccccc4)c4ccccc4)cc3)c(=O)n2CC(=O)O)sc2ccccc21.[Br-]` (stereo not drawn) [Compound 101], in data set [1], the Stained site is 1 and the Staining ability result is “∘”. For the same compound, in data set [2] (setting [4]), the “λem (fluorescence wavelength)” value is listed as 760 and the “λex (excitation wavelength)” value was 560.
`CCn1c(=C2SC(=S)N(CC(=O)O)C2=O)sc(=Cc2ccc3c(c2)C2CCCC2N3c2ccccc2)c1=O` (stereo not drawn) [Compound 102]: in data set [1], the Stained site was found to be 1 and the Staining ability result is given as “∘”. In data set [2] (setting [4]), the “λem (fluorescence wavelength)” value is on record as 700 and the “λex (excitation wavelength)” value amounted to 590.
As to `CSc1cccc(N2c3ccc(/C=C4/SC(=S)N(CC(=O)O)C4=O)cc3C3CCCC32)c1` (stereo not drawn) [Compound 103], the Staining ability result in data set [1] was “∘”. For the same compound, in data set [2] (setting [4]), the “λem (fluorescence wavelength)” value was determined as 640 and the “λex (excitation wavelength)” value was 520.
The corresponding values for `O=C(O)CN1C(=O)/C(=C2C=C/C(=C\c3ccc4c(c3)C3CCCC3N4c3ccccc3)C\2)SC1=S` (stereo not drawn) [Compound 106] are “∘”, 650 and 510.
For the compound `O=C1/C(=C/c2ccc3c(c2)C2CCCC2N3c2ccccc2)Oc2ccc(I)cc21` (stereo not drawn) [Compound 107], the Staining ability result in data set [1] is given as “∘”. Moreover, in data set [2] (setting [4]), the “λem (fluorescence wavelength)” value amounted to 490 and the “λex (excitation wavelength)” value was found to be 380.
For `COc1ccc(N2c3ccc(/C=C4\Oc5ccc(I)cc5C4=O)cc3C3CCCC32)cc1` (stereo not drawn) [Compound 108], in that order: “∘”, 680 and 530.
For `Cc1cc(C)cc(Nc2ccc3c4c(cc(=O)n3C)-c3ccccc3C(=O)c24)c1` [Compound 109], in that order: “∘”, 630 and 540.
On to `Cn1c(=O)cc2c3c(c(Nc4ccccc4)ccc31)C(=O)c1ccccc1-2` [Compound 110], for which, in data set [1], the Staining ability entry is reported as “∘”. In data set [2] (setting [5]), the “λem (fluorescence wavelength)” value is 614 and the “λex (excitation wavelength)” value was 538.
The corresponding values for `Nc1c(Br)cc(O)c2c1C(=O)c1ccccc1C2=O` [Compound 111] are “∘”, 589 and 527.
Take `Nc1c(OCCCOc2ccccc2)cc(O)c2c1C(=O)c1ccccc1C2=O` [Compound 112]: in data set [1], the Staining ability result is “∘”. For the same compound, in data set [2] (setting [5]), the “λem (fluorescence wavelength)” value was 568 and the “λex (excitation wavelength)” value worked out at 513.
In the case of `COC(=O)CCc1ccc(Oc2cc(O)c3c(c2N)C(=O)c2ccccc2C3=O)c(C)c1` [Compound 113], the Staining ability result in data set [1] is “∘”. Moreover, in data set [2] (setting [5]), the “λem (fluorescence wavelength)” value is 575 and the “λex (excitation wavelength)” value came to 514.
With `Nc1c(OCCOC(=O)Oc2ccccc2)cc(O)c2c1C(=O)c1ccccc1C2=O` [Compound 114], in data set [1], the Staining ability entry is reported as “∘”. In data set [2] (setting [5]), the “λem (fluorescence wavelength)” value is recorded as 568 and the “λex (excitation wavelength)” value came to 513.
For `Cc1cccc(Nc2ccc3c4c(cc(=O)n3C)-c3ccccc3C(=O)c24)c1` [Compound 115], in that order: “∘”, 614 and 540.
Turning to `COc1ccc(Nc2ccc3c4c(cc(=O)n3C)-c3ccccc3C(=O)c24)cc1` [Compound 116], the Staining ability entry in data set [1] was “∘”. Moreover, in data set [2] (setting [5]), the “λem (fluorescence wavelength)” value was found to be 584 and the “λex (excitation wavelength)” value is listed as 537.
In the case of `CCOc1ccc(Nc2ccc3c4c(cc(=O)n3C)-c3ccccc3C(=O)c24)cc1` [Compound 117], in data set [1], the Staining ability entry was “∘”. In data set [2] (setting [5]), the “λem (fluorescence wavelength)” value was 581 and the “λex (excitation wavelength)” value is given as 538.
`CCCCc1ccc(Nc2ccc3c4c(cc(=O)n3C)-c3ccccc3C(=O)c24)cc1` [Compound 118]: the Staining ability entry in data set [1] is “∘”. Further, in data set [2] (setting [5]), the “λem (fluorescence wavelength)” value was found to be 634 and the “λex (excitation wavelength)” value is 540.
For the compound `Cc1ccc(Nc2ccc3c4c(cc(=O)n3C)-c3ccccc3C(=O)c24)c(C)c1` [Compound 120], the Staining ability entry in data set [1] is listed as “∘”. Besides, in data set [2] (setting [5]), the “λem (fluorescence wavelength)” value was determined as 609 and the “λex (excitation wavelength)” value amounted to 537.
For the compound `Cc1ccc(C)c(Nc2ccc3c4c(cc(=O)n3C)-c3ccccc3C(=O)c24)c1` [Compound 121], the Staining ability result in data set [1] was “∘”. Also, in data set [2] (setting [5]), the “λem (fluorescence wavelength)” value is recorded as 609 and the “λex (excitation wavelength)” value is given as 537.
For `Cc1cccc(C)c1Nc1ccc2c3c(cc(=O)n2C)-c2ccccc2C(=O)c13` [Compound 122], in that order: “∘”, 582 and 534.
As to `O=C1OC2(c3ccc(O)cc3Oc3cc(O)ccc32)c2ccccc21` [Fluorescein, fluorescein, reference compound], in data set [1], the Staining ability result is reported as “−”. The “Result of observation” value in data set [3] is recorded as “−”.
With `CC1(C)C(/C=C/C=C/C=C/C=C2\N(CCCCS(=O)(=O)O)c3ccc4ccccc4c3C2(C)C)=[N+](CCCCS(=O)(=O)[O-])c2ccc3ccccc3c21` [ICG, indocyanine green, reference compound], the Staining ability result in data set [1] is on record as “−”. Besides, in data set [2] (setting [6]), the “λem (fluorescence wavelength)” value was determined as 811 and the “λex (excitation wavelength)” value amounted to 784. Moreover, the “Result of observation” value in data set [3] is “−”.
